For twelve molecules, IC50 and inhibition results are on record in PubChem BioAssay AID624129 (Sanford-Burnham Center for Chemical Genomics, 2012).

What all share (experiment): potency against CXCR6 with APJ panel – cell-based, beta-arrestin, DiscoveRx, uHTS hits, dose response (AID 624129)
Assay [1] has as its target Apelin receptor (Homo sapiens) (UniProt P35414). The conditions noted are these: CXCR6 beta-arrestin (DiscoveRx) antagonist cell assay, APJ.
In assay [2] the target is Beta-galactosidase (Escherichia coli) (UniProt Q8VNN2). The conditions noted are these: CXCR6 beta-arrestin (DiscoveRx) antagonist cell assay, b-galactosidase.
For assay [3], the target named is C-C chemokine receptor type 6 (Homo sapiens) (UniProt P51684). The following applies: CXCR6 beta-arrestin (DiscoveRx) antagonist cell assay.
The target of assay [4] is C-X-C chemokine receptor type 6 (Homo sapiens) (UniProt O00574). The conditions noted are these: CXCR6 beta-arrestin (DiscoveRx) antagonist cell assay; for inhibition: CXCR6, run 1, dose range 2, at 80 µM (top of the series).
Where [5] appears, read: dose range 1, mean IC50 across replicates.
Where [6] appears, read: CCR6, dose range 1, mean IC50 across replicates.
[7] abbreviates: CXCR6, dose range 1, mean IC50 across replicates.

For orientation: IC50 means the concentration at which inhibition is half-maximal. As usually defined, the inhibition is the drop in the measured response relative to a control, in per cent.

Active and inactive are the calls of the source. No rule for the calls is given here.

Sequence of Beta-galactosidase (Escherichia coli) (Q8VNN2 whole entry, looked up): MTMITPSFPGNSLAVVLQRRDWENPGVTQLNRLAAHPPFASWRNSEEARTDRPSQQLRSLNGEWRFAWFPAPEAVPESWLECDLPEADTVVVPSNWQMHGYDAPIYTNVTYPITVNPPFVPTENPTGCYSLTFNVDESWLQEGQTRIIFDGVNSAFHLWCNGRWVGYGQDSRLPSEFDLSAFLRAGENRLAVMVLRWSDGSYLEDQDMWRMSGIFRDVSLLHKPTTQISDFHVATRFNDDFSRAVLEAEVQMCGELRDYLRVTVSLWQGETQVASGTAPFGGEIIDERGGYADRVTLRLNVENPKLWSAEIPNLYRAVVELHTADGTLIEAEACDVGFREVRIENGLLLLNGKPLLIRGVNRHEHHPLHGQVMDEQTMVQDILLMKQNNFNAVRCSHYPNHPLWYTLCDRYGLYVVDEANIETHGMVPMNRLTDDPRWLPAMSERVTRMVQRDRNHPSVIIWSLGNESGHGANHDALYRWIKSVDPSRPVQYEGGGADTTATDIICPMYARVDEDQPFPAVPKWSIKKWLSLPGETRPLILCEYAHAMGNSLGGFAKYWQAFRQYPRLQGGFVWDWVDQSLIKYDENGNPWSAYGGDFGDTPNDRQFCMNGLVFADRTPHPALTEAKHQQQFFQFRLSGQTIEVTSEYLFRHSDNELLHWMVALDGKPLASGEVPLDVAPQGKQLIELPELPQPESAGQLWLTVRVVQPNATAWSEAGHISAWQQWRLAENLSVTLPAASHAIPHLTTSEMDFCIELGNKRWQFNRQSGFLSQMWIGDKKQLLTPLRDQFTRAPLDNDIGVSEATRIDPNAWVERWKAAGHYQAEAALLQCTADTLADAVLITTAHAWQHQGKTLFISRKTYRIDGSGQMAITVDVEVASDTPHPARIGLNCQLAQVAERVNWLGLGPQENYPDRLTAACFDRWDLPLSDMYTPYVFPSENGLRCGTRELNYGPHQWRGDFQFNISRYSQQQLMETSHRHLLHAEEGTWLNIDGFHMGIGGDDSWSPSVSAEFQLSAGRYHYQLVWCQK
Sequence of C-X-C chemokine receptor type 6 (Homo sapiens) (O00574 whole entry, looked up): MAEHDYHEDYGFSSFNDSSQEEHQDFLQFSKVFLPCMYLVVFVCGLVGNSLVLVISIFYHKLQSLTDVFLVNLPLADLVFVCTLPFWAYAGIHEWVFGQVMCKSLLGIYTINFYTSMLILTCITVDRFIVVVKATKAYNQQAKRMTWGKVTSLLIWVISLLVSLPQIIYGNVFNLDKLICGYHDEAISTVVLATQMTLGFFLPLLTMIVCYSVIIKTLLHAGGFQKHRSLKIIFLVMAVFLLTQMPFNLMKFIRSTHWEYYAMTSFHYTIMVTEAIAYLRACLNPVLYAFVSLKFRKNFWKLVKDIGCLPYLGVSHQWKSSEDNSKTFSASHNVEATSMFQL

Turning to `O=C1C=CC(=O)N1c1ccc(-c2nc3ccccc3o2)cc1`, the IC50 in assay [1] (dose range 1) was 5.45 µM; in assay [1] (setting [5]), 5.31 µM; in assay [1] (run 2, dose range 1) it was 5.18 µM; in assay [1] (run 3, dose range 1), greater than 80 µM; in assay [2] (dose range 1), > 80 µM (inactive); in assay [2] (setting [5]) it was greater than 80 µM. Also, the IC50 in assay [3] (CCR6, dose range 1) is 2.84 µM; in assay [3] (setting [6]), 3.1 µM; in assay [3] (CCR6, run 2, dose range 1), 3.36 µM; in assay [4] (CXCR6, dose range 1), 4.9 µM; in assay [4] (setting [7]), 4.9 µM; in assay [4] (CXCR6, run 2, dose range 1) it was greater than 80 µM. For the same molecule, the inhibition in assay [4] stood at 128%.
In the case of `COC(CNC(=O)c1cc(C(=O)c2c(-c3c(Cl)cccc3Cl)noc2C)c[nH]1)OC`, the IC50 was 5.2 µM in assay [1] (dose range 1); 9.29 µM in assay [1] (setting [5]); 10.7 µM in assay [1] (run 2, dose range 1); 12 µM in assay [1] (run 3, dose range 1); > 80 µM (inactive) in assay [2] (dose range 1); greater than 80 µM in assay [2] (setting [5]). Besides, the IC50 in assay [3] (CCR6, dose range 1) was 16.9 µM; in assay [3] (setting [6]), 24.1 µM; in assay [3] (CCR6, run 2, dose range 1), 31.4 µM; in assay [4] (setting [7]), 15.7 µM; in assay [4] (CXCR6, run 2, dose range 1) it was 18.6 µM. In assay [4] (CXCR6, dose range 1), the IC50 result is “inactive”. In addition, the inhibition in assay [4] was found to be 80.7%.
`Cc1ccc(C(=O)/C=C/C(=O)c2ccc(C)cc2)cc1`: the IC50 is greater than 80 µM in assay [1] (setting [5]); greater than 80 µM in assay [1] (run 2, dose range 1); greater than 80 µM in assay [1] (run 3, dose range 1); > 80 µM (inactive) in assay [2] (dose range 1); greater than 80 µM in assay [2] (setting [5]); greater than 80 µM in assay [3] (setting [6]). The IC50 is greater than 80 µM in assay [3] (CCR6, run 2, dose range 1); > 80 µM (inactive) in assay [4] (CXCR6, dose range 1); greater than 80 µM in assay [4] (setting [7]); greater than 80 µM in assay [4] (CXCR6, run 2, dose range 1). In addition, the inhibition in assay [4] amounted to 19.4%.
Regarding `CS(=O)(=O)c1ccc(C(=O)OCc2nnc(-c3ccccc3)o2)cc1[N+](=O)[O-]`, the IC50 is 4.43 µM in assay [1] (dose range 1); 3.86 µM in assay [1] (setting [5]); 3.23 µM in assay [1] (run 2, dose range 1); 3.93 µM in assay [1] (run 3, dose range 1); > 80 µM (inactive) in assay [2] (dose range 1); greater than 80 µM in assay [2] (setting [5]). Further, the IC50 is 7.32 µM in assay [3] (CCR6, dose range 1); 8.49 µM in assay [3] (setting [6]); 9.67 µM in assay [3] (CCR6, run 2, dose range 1); 3.8 µM in assay [4] (CXCR6, dose range 1); 3.17 µM in assay [4] (setting [7]); 3.23 µM in assay [4] (CXCR6, run 1, dose range 2). For the same molecule, the IC50 turned out to be 3.64 µM in assay [4] (CXCR6, run 2, dose range 1) and 2.03 µM in assay [4] (CXCR6, run 2, dose range 2).
As for `O=c1cc(CSc2ccc(Cl)cc2)nc(-c2ccccn2)[nH]1`, the IC50 in assay [1] (dose range 1) was 3.53 µM; in assay [1] (setting [5]), 3.82 µM; in assay [1] (run 2, dose range 1), 3.74 µM; in assay [1] (run 3, dose range 1), 4.18 µM; in assay [2] (dose range 1) it was > 80 µM (inactive); in assay [2] (setting [5]), greater than 80 µM. The IC50 is 2.87 µM in assay [3] (CCR6, dose range 1); 4.41 µM in assay [3] (setting [6]); 5.95 µM in assay [3] (CCR6, run 2, dose range 1); 4.35 µM in assay [4] (CXCR6, dose range 1); 3.68 µM in assay [4] (setting [7]); 3.45 µM in assay [4] (CXCR6, run 1, dose range 2). The IC50 in assay [4] (CXCR6, run 2, dose range 1) turned out to be 3.7 µM; in assay [4] (CXCR6, run 2, dose range 2), 3.2 µM.
With `CC(=O)Nc1ccc(Sc2ccc([N+](=O)[O-])o2)cc1`, the IC50 in assay [1] (dose range 1) is 14.2 µM; in assay [1] (setting [5]) it was 14.4 µM; in assay [1] (run 2, dose range 1), 15.4 µM; in assay [1] (run 3, dose range 1), 13.6 µM; in assay [2] (dose range 1), > 80 µM (inactive); in assay [2] (setting [5]), greater than 80 µM. Further, the IC50 is 9.21 µM in assay [3] (CCR6, dose range 1); 8.82 µM in assay [3] (setting [6]); 8.44 µM in assay [3] (CCR6, run 2, dose range 1); 13.7 µM in assay [4] (CXCR6, dose range 1); 10.7 µM in assay [4] (setting [7]); 9.08 µM in assay [4] (CXCR6, run 1, dose range 2). Further, the IC50 came to 8.84 µM in assay [4] (CXCR6, run 2, dose range 1) and 11.3 µM in assay [4] (CXCR6, run 2, dose range 2).
In the case of `NNc1nc(-c2ccccc2)cc(-c2ccccc2O)n1`, the IC50 in assay [1] (dose range 1) is 5.81 µM; in assay [1] (setting [5]) it was 8.52 µM; in assay [1] (run 2, dose range 1) it was 9.7 µM; in assay [1] (run 3, dose range 1), 10 µM; in assay [2] (dose range 1), > 80 µM (inactive); in assay [2] (setting [5]), greater than 80 µM. The IC50 is 7.84 µM in assay [3] (CCR6, dose range 1); 7.29 µM in assay [3] (setting [6]); 6.75 µM in assay [3] (CCR6, run 2, dose range 1); 9.66 µM in assay [4] (CXCR6, dose range 1); 6.87 µM in assay [4] (setting [7]); 3.62 µM in assay [4] (CXCR6, run 1, dose range 2). The IC50 was determined as 7.93 µM in assay [4] (CXCR6, run 2, dose range 1) and 6.29 µM in assay [4] (CXCR6, run 2, dose range 2).
As to `C=C(CN(C)C)C(=O)c1ccc(C)cc1C`, the IC50 in assay [1] (dose range 1) was 51.6 µM; in assay [1] (setting [5]), 39.5 µM; in assay [1] (run 2, dose range 1) it was 39.9 µM; in assay [1] (run 3, dose range 1), 27 µM; in assay [2] (dose range 1), 48.2 µM; in assay [2] (setting [5]), 48.2 µM. In addition, the IC50 is 26 µM in assay [3] (CCR6, dose range 1); 29.1 µM in assay [3] (setting [6]); 32.3 µM in assay [3] (CCR6, run 2, dose range 1); 45.6 µM in assay [4] (setting [7]); 25.5 µM in assay [4] (CXCR6, run 2, dose range 1). For the same molecule, the IC50 entry in assay [4] (CXCR6, dose range 1) was “inactive”. Moreover, the inhibition in assay [4] amounted to 90.5%.
Take `Cn1c(=O)c([N+](=O)[O-])c(Cl)c2ccccc21`: the IC50 in assay [1] (dose range 1) was 16.4 µM; in assay [1] (setting [5]), 29.4 µM; in assay [1] (run 2, dose range 1), 42.5 µM; in assay [1] (run 3, dose range 1), greater than 80 µM; in assay [2] (dose range 1) it was > 80 µM (inactive); in assay [2] (setting [5]) it was greater than 80 µM. The IC50 was 16.2 µM in assay [3] (CCR6, dose range 1); 21.7 µM in assay [3] (setting [6]); 27.1 µM in assay [3] (CCR6, run 2, dose range 1); 22.2 µM in assay [4] (setting [7]); greater than 80 µM in assay [4] (CXCR6, run 2, dose range 1). The IC50 result in assay [4] (CXCR6, dose range 1) was “inactive”. In assay [4], the inhibition worked out at 116%.
Take `Cc1nc2c(-c3ccc(Cl)cc3)c(C)[nH]n2c(=O)c1Cc1ccccc1`: the IC50 is greater than 80 µM in assay [1] (setting [5]); greater than 80 µM in assay [1] (run 2, dose range 1); greater than 80 µM in assay [1] (run 3, dose range 1); > 80 µM (inactive) in assay [2] (dose range 1); greater than 80 µM in assay [2] (setting [5]); greater than 80 µM in assay [3] (setting [6]). The IC50 was greater than 80 µM in assay [3] (CCR6, run 2, dose range 1); > 80 µM (inactive) in assay [4] (CXCR6, dose range 1); greater than 80 µM in assay [4] (setting [7]); greater than 80 µM in assay [4] (CXCR6, run 2, dose range 1). Also, the inhibition in assay [4] is -28.7%.
Take `CN(CCO)c1cc(Sc2nc3ccccc3s2)c2nonc2c1[N+](=O)[O-]`: the IC50 in assay [1] (dose range 1) was 10.3 µM; in assay [1] (setting [5]), 8.8 µM; in assay [1] (run 2, dose range 1), 7.74 µM; in assay [1] (run 3, dose range 1), 8.35 µM; in assay [2] (dose range 1) it was 25.6 µM; in assay [2] (setting [5]), 25.6 µM. Further, the IC50 was 6 µM in assay [3] (CCR6, dose range 1); 5.65 µM in assay [3] (setting [6]); 5.3 µM in assay [3] (CCR6, run 2, dose range 1); 6.85 µM in assay [4] (CXCR6, dose range 1); 7.46 µM in assay [4] (setting [7]); 8.56 µM in assay [4] (CXCR6, run 1, dose range 2). Also, the IC50 in assay [4] (CXCR6, run 2, dose range 1) is 6.34 µM; in assay [4] (CXCR6, run 2, dose range 2), 8.1 µM.
In the case of `Cc1ccc(C(=O)Sc2cccccc2=O)cc1`, the 50% inhibitory concentration (IC50) is 1.05 µM in assay [1] (dose range 1); 2.38 µM in assay [1] (setting [5]); 4.56 µM in assay [1] (run 2, dose range 1); 1.52 µM in assay [1] (run 3, dose range 1); > 80 µM (inactive) in assay [2] (dose range 1); greater than 80 µM in assay [2] (setting [5]). Further, the IC50 was 1.18 µM in assay [3] (CCR6, dose range 1); 1.55 µM in assay [3] (setting [6]); 1.92 µM in assay [3] (CCR6, run 2, dose range 1); 1.08 µM in assay [4] (CXCR6, dose range 1); 1.44 µM in assay [4] (setting [7]); 1.79 µM in assay [4] (CXCR6, run 2, dose range 1). Besides, the inhibition in assay [4] was determined as 42.3%.
